# “And” between values parts separate entries of the source, which are not always exact repeats. Equal entries are not always repeated. Where two headings read alike, the source gives them in different places.
# Legend:
# A. baumannii [1] = assay type: in vivo
# Experimental: (§1) Magnitudes associated with 1-log10 and 2-log10 CFU reduction from baseline at 24 hours as well as the exposure required for an 80% reduction in bacterial burden (EC80) were determined from the fitted function.
# A. baumannii [2] = assay: Murine neutropenic lung infection model, PK/PD exposure-response; assay type: in vivo, CD-1 mice
# Experimental: as §1
# [3] = Population PK in infected neutropenic mice (two-compartment model)
# Excerpt: As the plasma PK of neutropenic lung-infected animals matched that of thigh-infected animals, the thigh-infected PK was used for the development of the population PK model and subsequent exposure estimates for doses used in the PK/PD exposure-response analyses. Pharmacokinetic models were fit to time vs. drug concentration profiles generated in infected mice using Phoenix6.2 WinNonLin and NLME. […] Predicted exposures were utilized in the PK/PD analyses as all dosing solutions tested were within the variability of the bioanalytical method (20%).
# A. baumannii [4] = assay: Murine neutropenic thigh and lung models taken together; assay type: in vivo, CD-1 mice
# Experimental: as §1
# [5] = set-up: method as in data on file Entasis Therapeutics; details: mean of mouse plasma protein unbound fractions ex vivo, 0.4 µM to 50 µM; ref data on file Entasis Therapeutics; cited from earlier work
# A. baumannii [6] = details: in vitro pharmacodynamic models; cited from earlier work
# [7] = based on total ELF and plasma AUC exposures; cited from earlier work
# A. baumannii [8] = system: A. baumannii; set-up: method as in PMID 34349751; details: cited from earlier work
# in vivo = details: CD-1, mouse
# [9] = Distribution into mouse ELF (plasma and BAL sampling); details: 100:25 mg/kg sulbactam:durlobactam SC, neutropenic mice infected with ARC2058
# A. baumannii isolates = assay: Broth MIC testing (CLSI methodology); assay type: cell-based; details: Acinetobacter baumannii, modal MIC, combination = sulbactam with fixed 4 µg/mL durlobactam
# Excerpt: All strains with an “ARC” designation are part of the Entasis collection of clinical isolates. All isolates have been previously characterized by whole genome sequencing.
# [10] = system: 4,038 recent, global, clinical isolates of A. baumannii; set-up: method as in PMID 36005804; details: 4,038 global clinical isolates, cited from earlier work
# A. baumannii [11] = assay type: in vivo; details: thigh model; oral 200 mg/kg bid; A. baumannii ARC2058; 24 h
# [12] = thigh (4:1 dose), 5 strains, SUL mean exposure 32.9 to 43.5%T>MIC, 24 h
# [13] = sulbactam and durlobactam co-administered 4:1 SC, predicted value (% coefficient of variance)
# [14] = mean of thigh 4:1, lung 4:1 and thigh fixed SUL dose
# [15] = thigh model, A. baumannii ARC2058, SC q6h, 24 h
# [16] = lung model, A. baumannii ARC2058, SC q6h, 24 h
# [17] = co-modeled thigh (n = 6 strains), sulbactam alone and combined with durlobactam
# [18] = thigh, ARC2058, sulbactam only, 24 h
# [19] = thigh, ARC3484, sulbactam:durlobactam 4:1 dosing, 24 h
# [20] = thigh, ARC5081, sulbactam:durlobactam 4:1 dosing, 24 h
# [21] = thigh, ARC5091, sulbactam:durlobactam 4:1 dosing, 24 h
# [22] = thigh, mean of individual CRAB strains, 4:1 dosing
structure (smiles),measurement,setting,value
"CC1=C[C@@H]2CN(C(=O)N2OS(=O)(=O)O)[C@@H]1C(N)=O [Durlobactam, durlobactam]",Co-modeled durlobactam fAUC/MIC ratio for EC80,"A. baumannii [1]; mouse, in vivo",38.2
same,Co-modeled durlobactam fAUC/MIC ratio for 1-log10 CFU reduction from baseline,A. baumannii [1]; [12],8.0
same,Co-modeled durlobactam fAUC/MIC ratio for 2-log10 CFU reduction from baseline,A. baumannii [1]; [12],16.0
same,Co-modeled durlobactam fAUC/MIC ratio for EC80,A. baumannii [1]; [12],15.1
same,Co-modeled durlobactam fAUC/MIC ratio for 1-log10 CFU reduction from baseline,"A. baumannii [2]; mouse, in vivo",10.6
same,Co-modeled durlobactam fAUC/MIC ratio for 2-log10 CFU reduction from baseline,"A. baumannii [2]; mouse, in vivo",22.4
same,Co-modeled durlobactam fAUC/MIC ratio for EC80,"A. baumannii [2]; mouse, in vivo",78.6
same,Cl1 (clearance of central compartment),[3]; [13],3.0747 (7.3) L/kg/h
same,Ka (absorption rate),[3]; [13],13.5 (32.6) 1/hr
same,V1 (central compartment volume of distribution),[3]; [13],1.2508 (8.4) L/kg
same,durlobactam fAUC/MIC0-24 at which an additional log10 CFU reduction can be realized,"A. baumannii [4]; both thigh and lung models, in combination with sulbactam",~ 30
same,durlobactam fAUC/MIC0-24 at which 1-log10 CFU reduction over 24 hours can be realized,"A. baumannii [4]; both thigh and lung models, in combination with sulbactam, co-modeled across strains",10 and ~ 10
same,"Durlobactam fAUC/MIC ratio for 1-log10 CFU reduction from baseline, Mean ± SD",A. baumannii [4]; [14],8.7 ± 1.7
same,"Durlobactam fAUC/MIC ratio for 2-log10 CFU reduction from baseline, Mean ± SD",A. baumannii [4]; [14],23.4 ± 7.9
same,"Durlobactam fAUC/MIC ratio for EC80, Mean ± SD",A. baumannii [4]; [14],44.0 ± 32.1
same,murine unbound fraction,[5],100%
same,durlobactam AUC/MIC associated with net 1-log10 CFU reduction over 24 hours,A. baumannii [6],> 10 and 10
same,ELF penetration observed clinically,[7],37%
same,intrinsic antibacterial activity against A. baumannii on its own,A. baumannii [8],no significant intrinsic antibacterial activity
same,Kp,"in vivo; epithelial lining fluid (ELF) / plasma, subcutaneous",0.63
same,AUC,"in vivo; in vivo, sc, 25 mg/kg",7000 ng·h/mL
same,Kp,"in vivo; in vivo, sc, 25 mg/kg",0.63
same,concentration at 1 h,"in vivo; in vivo, sc, 25 mg/kg",4070 ± 1790 ng/mL
same,concentration at 3 h,"in vivo; in vivo, sc, 25 mg/kg",330 ± 130 ng/mL
same,concentration at 12 h,"in vivo; in vivo, sc, 25 mg/kg",10 ± 1 ng/mL
same,"AUC, ELF",[9],4400 ng·h/mL
same,"Concentration, ELF",[9]; 1 h,2480 ± 910 ng/mL
same,"Concentration, ELF",[9]; 3 h,260 ± 150 ng/mL
same,"Concentration, ELF",[9]; 6 h,2 ± 1 ng/mL
same,"Concentration, Plasma",[9]; 6 h,30 ± 10 ng/mL
same,"Concentration, ELF",[9]; 12 h,BLQ
"C[C@@H](O)[C@H]1C(=O)N2C(C(=O)O)=C(S[C@@H]3CN[C@H](C(=O)N(C)C)C3)[C@H](C)[C@H]12 [Meropenem, meropenem]",Meropenem %fT>MIC for 1-log10 CFU/g reduction from baseline,A. baumannii [1]; [15],27.2%
same,Meropenem %fT>MIC for 2-log10 CFU/g reduction from baseline,A. baumannii [1]; [15],32.4%
same,Meropenem %fT>MIC for EC80,A. baumannii [1]; [15],36.0%
same,Meropenem %fT>MIC for 1-log10 CFU/g reduction from baseline,A. baumannii [2]; [16],29.4%
same,Meropenem %fT>MIC for 2-log10 CFU/g reduction from baseline,A. baumannii [2]; [16],32.2%
same,Meropenem %fT>MIC for EC80,A. baumannii [2]; [16],39.7%
"CC1(C)[C@H](C(=O)O)N2C(=O)C[C@H]2S1(=O)=O [Sulbactam, sulbactam]",MIC,A. baumannii isolates; A. baumannii ARC2058,2 µg/mL
same,MIC,A. baumannii isolates; A. baumannii ARC3484,16 µg/mL
same,MIC,A. baumannii isolates; A. baumannii ARC3486,32 µg/mL
same,MIC,A. baumannii isolates; A. baumannii ARC5077,16 µg/mL
same,MIC,A. baumannii isolates; A. baumannii ARC5079,32 µg/mL
same,MIC,A. baumannii isolates; A. baumannii ARC5081,16 µg/mL
same,MIC,A. baumannii isolates; A. baumannii ARC5091,8 µg/mL
same,MIC,A. baumannii isolates; A. baumannii ARC5950,64 µg/mL
same,MIC,A. baumannii isolates; A. baumannii ARC5954,32 µg/mL
same,MIC,A. baumannii isolates; A. baumannii ARC5955,64 µg/mL
same,Sulbactam %fT>MIC for 2-log10 CFU reduction from baseline,A. baumannii [1]; [17],38.2%
same,Sulbactam %fT>MIC for EC80,A. baumannii [1]; [17],44.1%
same,Sulbactam %fT>MIC for 1-log10 CFU reduction from baseline,A. baumannii [1]; [18],20.5%
same,Sulbactam %fT>MIC for 2-log10 CFU reduction from baseline,A. baumannii [1]; [18],31.5%
same,Sulbactam %fT>MIC for EC80,A. baumannii [1]; [18],47.0%
same,Sulbactam %fT>MIC for 2-log10 CFU reduction from baseline,A. baumannii [1]; [19],40.2%
same,Sulbactam %fT>MIC for EC80,A. baumannii [1]; [19],42.8%
same,Sulbactam %fT>MIC for EC80,"A. baumannii [1]; thigh, ARC3486, sulbactam:durlobactam 4:1 dosing, 24 h",55.3%
same,Sulbactam %fT>MIC for EC80,"A. baumannii [1]; thigh, ARC5079, sulbactam:durlobactam 4:1 dosing, 24 h",53.2%
same,Sulbactam %fT>MIC for 1-log10 CFU reduction from baseline,A. baumannii [1]; [20],26.3%
same,Sulbactam %fT>MIC for 2-log10 CFU reduction from baseline,A. baumannii [1]; [20],28.8%
same,Sulbactam %fT>MIC for EC80,A. baumannii [1]; [20],32.0%
same,Sulbactam %fT>MIC for 1-log10 CFU reduction from baseline,A. baumannii [1]; [21],26.7%
same,Sulbactam %fT>MIC for 2-log10 CFU reduction from baseline,A. baumannii [1]; [21],29.3%
same,Sulbactam %fT>MIC for EC80,A. baumannii [1]; [21],30.4%
same,"Sulbactam %fT>MIC for 2-log10 CFU reduction from baseline, Mean ± SD",A. baumannii [1]; [22],38.6 ± 10.0%
same,"Sulbactam %fT>MIC for EC80, Mean ± SD",A. baumannii [1]; [22],42.7 ± 11.6%
same,V1 (central compartment volume of distribution),"[3]; sulbactam alone, SC, predicted value",1.8847 L/kg
same,Ka (absorption rate),"[3]; sulbactam alone, SC, predicted value (% coefficient of variance)",6 (12.5) 1/hr
same,Ka (absorption rate),[3]; [13],12 (8.4) 1/hr
same,V1 (central compartment volume of distribution),[3]; [13],1.0177 (7.0) L/kg
same,sulbactam fT>MIC at which 1-log10 CFU reduction over 24 hours can be realized,"A. baumannii [4]; both thigh and lung models, in combination with durlobactam, co-modeled across strains",exceeds 50%
same,sulbactam fT>MIC at which 2-log10 CFU reduction was achieved,"A. baumannii [4]; present in vivo study, sulbactam-susceptible isolate ARC2058",exceeded 50%
same,murine unbound fraction,[5],100%
same,MIC90 of sulbactam,[10]; sulbactam alone,64 µg/mL
same,MIC90 of sulbactam,[10]; with the addition of durlobactam,2 µg/mL
same,"AUC, ELF",[9],10300 ng·h/mL
same,"AUC, Plasma",[9],32300 ng·h/mL
same,"Concentration, ELF",[9]; 1 h,5700 ± 1150 ng/mL
same,"Concentration, Plasma",[9]; 1 h,18550 ± 5870 ng/mL
same,"Concentration, ELF",[9]; 3 h,540 ± 120 ng/mL
same,"Concentration, Plasma",[9]; 3 h,1690 ± 560 ng/mL
same,"Concentration, ELF",[9]; 6 h,290 ± 140 ng/mL
same,"Concentration, Plasma",[9]; 6 h,100 ± 50 ng/mL
same,"Concentration, ELF",[9]; 12 h,60 ± 10 ng/mL
same,"Concentration, Plasma",[9]; 12 h,20 ± 10 ng/mL
C[C@H]1COc2c(N3CCN(C)CC3)c(F)cc3c(=O)c(C(=O)O)cn1c23 [levofloxacin],log10 CFU/g reduction (positive control),"A. baumannii [2]; lung model, oral 200 mg/kg bid, A. baumannii ARC2058, 24 h",1.8 log10 CFU/g
same,change in log10 CFU (positive control),A. baumannii [11],−2.4 log10 CFU

# — paper PMC10777848 (Antimicrobial Agents and Chemotherapy, 2023)
